# Columns and labels:
# [1] = system: patients with multiple sclerosis; test: patient assessment of treatment benefit at visit 8; format: in vivo, human
# [2] = system: patients with multiple sclerosis; test: category-rating scales, patient reporting of secondary outcomes; format: in vivo, human; conditions: category rating scale
# [3] = system: patients with multiple sclerosis with problematic spasticity; test: Ashworth score of spasticity, randomized placebo-controlled study; format: in vivo, human; conditions: baseline to 13 weeks follow-up (visit 7)
# [4] = system: patients with multiple sclerosis; test: adverse events reported by patients
smiles,measurement,setting,value
"CCCCCc1cc(O)c2c(c1)OC(C)(C)[C@@H]1CCC(C)=C[C@@H]21 (relative stereo) [delta-9-THC, (6aR-trans)-6a,7,8,10a-tetrahydro-6,6,9-trimethyl-3-pentyl-6H-dibenzo[b,d]pyran-1-ol]","Symptom Improvement, Bladder: No",[1]; number of patients,97
same,"Symptom Improvement, Bladder: Yes",[1]; number of patients,67
same,"Symptom Improvement, Pain: No",[1]; number of patients,64
same,"Symptom Improvement, Pain: Yes",[1]; number of patients,64
same,"Symptom Improvement, Spasticity: No",[1]; number of patients,73
same,"Symptom Improvement, Tremor: No",[1]; number of patients,67
same,"Symptom Improvement, Tremor: Yes",[1]; number of patients,44
same,"Symptom Improvement, Bladder: No",[1]; percent of patients,59%
same,"Symptom Improvement, Bladder: Yes",[1]; percent of patients,40%
same,"Symptom Improvement, Pain: No",[1]; percent of patients,50%
same,"Symptom Improvement, Pain: Yes",[1]; percent of patients,50%
same,"Symptom Improvement, Spasticity: No",[1]; percent of patients,40%
same,"Symptom Improvement, Spasticity: Yes",[1]; percent of patients,60%
same,"Symptom Improvement, Tremor: No",[1]; percent of patients,60%
same,"Symptom Improvement, Tremor: Yes",[1]; percent of patients,40%
same,Depression: Deterioration,[2]; number of patients,42
same,Depression: Improvement,[2]; number of patients,36
same,Depression: Same,[2]; number of patients,47
same,Energy: Deterioration,[2]; number of patients,49
same,Energy: Improvement,[2]; number of patients,61
same,Energy: Same,[2]; number of patients,63
same,Irritability: Deterioration,[2]; number of patients,32
same,Irritability: Improvement,[2]; number of patients,37
same,Irritability: Same,[2]; number of patients,42
same,Pain: Deterioration,[2]; number of patients,22
same,Pain: Improvement,[2]; number of patients,64
same,Pain: Same,[2]; number of patients,43
same,Shake/tremor: Deterioration,[2]; number of patients,32
same,Shake/tremor: Improvement,[2]; number of patients,52
same,Shake/tremor: Same,[2]; number of patients,44
same,Sleep: Deterioration,[2]; number of patients,24
same,Sleep: Improvement,[2]; number of patients,71
same,Sleep: Same,[2]; number of patients,57
same,Spasms: Deterioration,[2]; number of patients,27
same,Spasms: Improvement,[2]; number of patients,81
same,Spasms: Same,[2]; number of patients,49
same,Spasticity: Deterioration,[2]; number of patients,47
same,Spasticity: Improvement,[2]; number of patients,89
same,Spasticity: Same,[2]; number of patients,40
same,Tiredness: Deterioration,[2]; number of patients,76
same,Tiredness: Improvement,[2]; number of patients,35
same,Tiredness: Same,[2]; number of patients,46
same,Depression: Deterioration,[2]; percent of patients,(34%)
same,Depression: Improvement,[2]; percent of patients,(29%)
same,Depression: Same,[2]; percent of patients,(38%)
same,Energy: Deterioration,[2]; percent of patients,(28%)
same,Energy: Improvement,[2]; percent of patients,(35%)
same,Energy: Same,[2]; percent of patients,(36%)
same,Irritability: Deterioration,[2]; percent of patients,(29%)
same,Irritability: Improvement,[2]; percent of patients,(33%)
same,Irritability: Same,[2]; percent of patients,(38%)
same,Pain: Deterioration,[2]; percent of patients,(17%)
same,Pain: Improvement,[2]; percent of patients,(50%)
same,Pain: Same,[2]; percent of patients,(33%)
same,Shake/tremor: Deterioration,[2]; percent of patients,(25%)
same,Shake/tremor: Improvement,[2]; percent of patients,(41%)
same,Shake/tremor: Same,[2]; percent of patients,(34%)
same,Sleep: Deterioration,[2]; percent of patients,(16%)
same,Sleep: Improvement,[2]; percent of patients,(47%)
same,Sleep: Same,[2]; percent of patients,(38%)
same,Spasms: Deterioration,[2]; percent of patients,(22%)
same,Spasms: Improvement,[2]; percent of patients,(49%)
same,Spasms: Same,[2]; percent of patients,(29%)
same,Spasticity: Deterioration,[2]; percent of patients,(27%)
same,Spasticity: Improvement,[2]; percent of patients,(51%)
same,Spasticity: Same,[2]; percent of patients,(23%)
same,Tiredness: Deterioration,[2]; percent of patients,(48%)
same,Tiredness: Improvement,[2]; percent of patients,(22%)
same,Tiredness: Same,[2]; percent of patients,(29%)
same,"Mean (SD) change in Ashworth score, upper-body muscle groups (baseline minus follow-up)",[3],0.48 (4.70)
same,incidences of MS relapse,[4]; by comparison with placebo,greatly reduced
same,Adverse Event: Blocked/insertion of suprapubic catheter,[4]; number reported,0
same,Adverse Event: Constipation,[4]; number reported,0
same,Adverse Event: Grand mal seizure,[4]; number reported,0
same,Adverse Event: MS relapse or possible relapse,[4]; number reported,1
same,Adverse Event: Other,[4]; number reported,11
same,Adverse Event: Pneumonia,[4]; number reported,2
same,Adverse Event: Urinary tract infection,[4]; number reported,3

# Reference: patent US20080181942A1, “Delta-9-THC compositions and methods for treating symptoms associated with multiple sclerosis” (University of Plymouth, priority 2006, published 2008)
